7 molecules from US8642544B2, “N-terminus conformationally constrained GLP-1 receptor agonist compounds” (Amylin Pharmaceuticals, LLC, priority 2009, dated 2014) can be followed below.

Molecules are shown by their SMILES.

In one test the target is T1, GLP-1 receptor (Rattus norvegicus, UniProt P32301).
T1 construct: 96-well assay plate containing RIN m5f cell membranes in an ATP/GTP mixture; endogenous in cells; host or cells: RIN m5f cell membranes
T1 sequence (P32301 22-463): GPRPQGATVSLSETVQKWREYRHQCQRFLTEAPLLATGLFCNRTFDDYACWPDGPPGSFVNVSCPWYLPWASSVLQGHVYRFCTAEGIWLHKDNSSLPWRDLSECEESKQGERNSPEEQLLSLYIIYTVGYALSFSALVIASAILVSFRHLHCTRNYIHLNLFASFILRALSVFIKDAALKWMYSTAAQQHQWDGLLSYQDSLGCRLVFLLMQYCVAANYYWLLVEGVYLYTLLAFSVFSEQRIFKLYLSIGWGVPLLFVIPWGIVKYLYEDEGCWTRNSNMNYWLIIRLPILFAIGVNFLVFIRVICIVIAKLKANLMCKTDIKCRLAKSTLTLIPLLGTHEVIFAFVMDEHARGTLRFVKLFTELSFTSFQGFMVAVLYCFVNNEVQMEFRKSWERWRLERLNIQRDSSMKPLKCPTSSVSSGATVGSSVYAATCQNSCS
In words: in vitro functional assay at the GLP-1 receptor (cyclase, cAMP production in RIN m5f cell membranes). The format is biochemical. The note with it: Cyclase GLP-1 Receptor EC50 (nM), Table 1; RIN m5f cell membranes, cAMP production (AlphaScreen). Here is the method: The compounds shown in Table 1 below were analyzed in an in vitro functional assay at the GLP-1 receptor. The assay was conducted as follows: Membrane fractions were prepared from confluent cultures of RIN m5f cells. Compounds were serially diluted with an assay buffer, and then added to a 96-well assay plate containing RIN m5f cell membranes in an ATP/GTP mixture. Cyclase activities were determined by measuring the production of cAMP induced through GLP-1 receptor activation. Quantification of cAMP production was achieved through a competitive chemiluminescence assay with a biotinylated-cAMP probe using Perkin Elmer Fusion™-Alpha Microplate Analyzer (AlphaScreen™ technology). The compound EC50 values were obtained through fitting the concentration-response curves to a four-parameter logistic equation within GraphPad PRISM® software.

The next test relates to NIH/Swiss female mice. In words: in vivo basal glucose lowering assay. The note with it: subcutaneous injection. Here is the method: Some compounds shown in Table 1 below were analyzed in an in vivo basal glucose lowering assay using the following procedure: A subcutaneous injection of either 200 μl phosphate-buffered saline (PBS) vehicle or test article was given immediately following baseline glucose (t=0) to NIH/Swiss female mice. Tail blood glucose samples were measured at t=2 and 4 hours post dose using a OneTouch® Ultra® (LifeScan, Inc., a Johnson & Johnson Company, Milpitas, Calif.). Body weight was measured daily. Significant test sample effects were identified by ANOVA (p<0.05), followed by Dunnett's post test using GraphPad Prism version 4.00 for Windows (GraphPad Software, San Diego Calif.).

Setting [1] is: Table 1, time in hours, tail blood glucose at t=2 and 4 hours post dose.
[2] abbreviates: Table 1, result in words (inactive / similar to GLP-1).

Molecule `CC[C@H](C)[C@H](NC(=O)[C@H](Cc1ccccc1)NC(=O)[C@H](CC(C)C)NC(=O)[C@H](CCCNC(=N)N)NC(=O)[C@@H](NC(=O)[C@H](C)NC(=O)[C@H](CCC(=O)O)NC(=O)[C@H](CCC(=O)O)NC(=O)[C@H](CCC(=O)O)NC(=O)[C@H](CC(C)C)NC(=O)[C@H](CCC(N)=O)NC(=O)[C@H](CCCCN)NC(=O)[C@H](CO)NC(=O)[C@H](CC(C)C)NC(=O)[C@H](CC(=O)O)NC(=O)[C@H](CO)NC(=O)[C@@H](NC(=O)[C@H](Cc1ccccc1)NC(=O)[C@@H](NC(=O)CNC(=O)[C@@H]1CCCN1C(=O)CNC(=O)[C@@H](N)Cc1c[nH]cn1)[C@@H](C)O)[C@@H](C)O)C(C)C)C(=O)N[C@@H](CCC(=O)O)C(=O)N[C@@H](Cc1ccccc1)C(=O)N[C@@H](CC(C)C)C(=O)N[C@@H](CCCCN)C(=O)N[C@@H](CC(N)=O)C(N)=O` [5B] had an EC50 on GLP-1 receptor of 0.53 nM. In the test with NIH/Swiss female mice (setting [1]), the “In Vivo Glucose-Lowering Assay” value is given as “more than 4 hours”.

Turning to `CC[C@H](C)[C@H](NC(=O)[C@H](Cc1ccccc1)NC(=O)[C@H](CC(C)C)NC(=O)[C@H](CCCNC(=N)N)NC(=O)[C@@H](NC(=O)[C@H](C)NC(=O)[C@H](CCC(=O)O)NC(=O)[C@H](CCC(=O)O)NC(=O)[C@H](CCC(=O)O)NC(=O)[C@H](CC(C)C)NC(=O)[C@H](CCC(N)=O)NC(=O)[C@H](CCCCN)NC(=O)[C@H](CO)NC(=O)[C@H](CC(C)C)NC(=O)[C@H](CC(=O)O)NC(=O)[C@H](CO)NC(=O)[C@@H](NC(=O)[C@H](Cc1ccccc1)NC(=O)[C@@H](NC(=O)CNC(=O)C(C)(C)NC(=O)[C@@H](C)NC(=O)[C@@H](N)Cc1c[nH]cn1)[C@@H](C)O)[C@@H](C)O)C(C)C)C(=O)N[C@@H](CCC(=O)O)C(=O)N[C@@H](Cc1ccccc1)C(=O)N[C@@H](CC(C)C)C(=O)N[C@@H](CCCCN)C(=O)N[C@@H](CC(N)=O)C(N)=O` [9B], at GLP-1 receptor, it took 0.03 nM to reach a half-maximal effect (EC50). Further, the “In Vivo Glucose-Lowering Assay” value with NIH/Swiss female mice (setting [1]) is reported as “more than 4 hours”.

Turning to `CC[C@H](C)[C@H](NC(=O)[C@H](Cc1ccccc1)NC(=O)[C@H](CC(C)C)NC(=O)[C@H](CCCNC(=N)N)NC(=O)[C@@H](NC(=O)[C@H](C)NC(=O)[C@H](CCC(=O)O)NC(=O)[C@H](CCC(=O)O)NC(=O)[C@H](CCC(=O)O)NC(=O)[C@H](CC(C)C)NC(=O)[C@H](CCC(N)=O)NC(=O)[C@H](CCCCN)NC(=O)[C@H](CO)NC(=O)[C@H](CC(C)C)NC(=O)[C@H](CC(=O)O)NC(=O)[C@H](CO)NC(=O)[C@@H](NC(=O)[C@H](Cc1ccccc1)NC(=O)[C@@H](NC(=O)CNC(=O)[C@@H]1CSCN1C(=O)[C@@H](C)NC(=O)[C@@H](N)Cc1c[nH]cn1)[C@@H](C)O)[C@@H](C)O)C(C)C)C(=O)N[C@@H](CCC(=O)O)C(=O)N[C@@H](Cc1ccccc1)C(=O)N[C@@H](CC(C)C)C(=O)N[C@@H](CCCCN)C(=O)N[C@@H](CC(N)=O)C(N)=O` [9D], on GLP-1 receptor, the EC50 turned out to be 0.01 nM. Also, in the test with NIH/Swiss female mice (setting [1]), the “In Vivo Glucose-Lowering Assay” value is given as “more than 4 hours”.

`CC[C@H](C)[C@H](NC(=O)[C@H](Cc1ccccc1)NC(=O)[C@H](CC(C)C)NC(=O)[C@H](CCCNC(=N)N)NC(=O)[C@@H](NC(=O)[C@H](C)NC(=O)[C@H](CCC(=O)O)NC(=O)[C@H](CCC(=O)O)NC(=O)[C@H](CCC(=O)O)NC(=O)[C@H](CC(C)C)NC(=O)[C@H](CCC(N)=O)NC(=O)[C@H](CCCCN)NC(=O)[C@H](CO)NC(=O)[C@H](CC(C)C)NC(=O)[C@H](CC(=O)O)NC(=O)[C@H](CO)NC(=O)[C@@H](NC(=O)[C@H](Cc1ccccc1)NC(=O)[C@@H](NC(=O)CNC(=O)[C@@H]1CS(=O)(=O)CN1C(=O)[C@@H](C)NC(=O)[C@@H](N)Cc1c[nH]cn1)[C@@H](C)O)[C@@H](C)O)C(C)C)C(=O)N[C@@H](CCC(=O)O)C(=O)N[C@@H](Cc1ccccc1)C(=O)N[C@@H](CC(C)C)C(=O)N[C@@H](CCCCN)C(=O)N[C@@H](CC(N)=O)C(N)=O` [9F] returned a concentration for a half-maximal effect (EC50) at GLP-1 receptor of 0.07 nM. For the same molecule, in the test with NIH/Swiss female mice (setting [1]), the “In Vivo Glucose-Lowering Assay” value is on record as “more than 4 hours”.

In the case of `CC[C@H](C)[C@H](NC(=O)[C@H](Cc1ccccc1)NC(=O)[C@H](CC(C)C)NC(=O)[C@H](CCCNC(=N)N)NC(=O)[C@@H](NC(=O)[C@H](C)NC(=O)[C@H](CCC(=O)O)NC(=O)[C@H](CCC(=O)O)NC(=O)[C@H](CCC(=O)O)NC(=O)[C@H](CC(C)C)NC(=O)[C@H](CCC(N)=O)NC(=O)[C@H](CCCCN)NC(=O)[C@H](CO)NC(=O)[C@H](CC(C)C)NC(=O)[C@H](CC(=O)O)NC(=O)[C@H](CO)NC(=O)[C@@H](NC(=O)[C@H](Cc1ccccc1)NC(=O)[C@@H](NC(=O)[C@H]1CCCN(C(=O)[C@@H]2CCCN(C(=O)[C@H](C)NC(=O)[C@@H](N)Cc3c[nH]cn3)C2)C1)[C@@H](C)O)[C@@H](C)O)C(C)C)C(=O)N[C@@H](CCC(=O)O)C(=O)N[C@@H](Cc1c[nH]c2ccccc12)C(=O)N[C@@H](CC(C)C)C(=O)N[C@@H](CCCCN)C(=O)N[C@@H](CCC(N)=O)C(=O)NCC(=O)NCC(=O)N1CCC[C@H]1C(=O)N[C@@H](CO)C(=O)N[C@@H](CCCCN)C(=O)N[C@@H](CCC(=O)O)C(=O)N[C@H](C(=O)N[C@H](C(=O)N[C@@H](CO)C(N)=O)[C@@H](C)CC)[C@@H](C)CC` [15A], the “In Vivo Glucose-Lowering Assay” value in the test with NIH/Swiss female mice (setting [2]) is “inactive”.

As to `CC[C@H](C)[C@H](NC(=O)[C@H](Cc1ccccc1)NC(=O)[C@H](CC(C)C)NC(=O)[C@H](CCCNC(=N)N)NC(=O)[C@@H](NC(=O)[C@H](C)NC(=O)[C@H](CCC(=O)O)NC(=O)[C@H](CCC(=O)O)NC(=O)[C@H](CCC(=O)O)NC(=O)[C@H](CC(C)C)NC(=O)[C@H](CCC(N)=O)NC(=O)[C@H](CCCCN)NC(=O)[C@H](CO)NC(=O)[C@H](CC(C)C)NC(=O)[C@H](CC(=O)O)NC(=O)[C@H](CO)NC(=O)[C@@H](NC(=O)[C@H](Cc1ccccc1)NC(=O)[C@@H](NC(=O)CNC(=O)[C@H]1CCCN(C(=O)[C@@H]2CCCN(C(=O)[C@@H](N)Cc3c[nH]cn3)C2)C1)[C@@H](C)O)[C@@H](C)O)C(C)C)C(=O)N[C@@H](CCC(=O)O)C(=O)N[C@@H](Cc1c[nH]c2ccccc12)C(=O)N[C@@H](CC(C)C)C(=O)N[C@@H](CCCCN)C(=O)N[C@@H](CCC(N)=O)C(=O)NCC(=O)NCC(=O)N1CCC[C@H]1C(=O)N[C@@H](CO)C(=O)N[C@@H](CCCCN)C(=O)N[C@@H](CCC(=O)O)C(=O)N[C@H](C(=O)N[C@H](C(=O)N[C@@H](CO)C(N)=O)[C@@H](C)CC)[C@@H](C)CC` [15C], in the test with NIH/Swiss female mice (setting [2]), the “In Vivo Glucose-Lowering Assay” value is “inactive”.

As for `CC[C@H](C)[C@H](NC(=O)[C@H](Cc1ccccc1)NC(=O)[C@H](CC(C)C)NC(=O)[C@H](CCCNC(=N)N)NC(=O)[C@@H](NC(=O)[C@H](C)NC(=O)[C@H](CCC(=O)O)NC(=O)[C@H](CCC(=O)O)NC(=O)[C@H](CCC(=O)O)NC(=O)[C@H](CC(C)C)NC(=O)[C@H](CCC(N)=O)NC(=O)[C@H](CCCCN)NC(=O)[C@H](CO)NC(=O)[C@H](CC(C)C)NC(=O)[C@H](CC(=O)O)NC(=O)[C@H](CO)NC(=O)[C@@H](NC(=O)[C@H](Cc1ccccc1)NC(=O)[C@@H](NC(=O)CNC(=O)[C@@H]1CCCN(C(=O)[C@H]2CCCN(C(=O)[C@@H](N)Cc3c[nH]cn3)C2)C1)[C@@H](C)O)[C@@H](C)O)C(C)C)C(=O)N[C@@H](CCC(=O)O)C(=O)N[C@@H](Cc1c[nH]c2ccccc12)C(=O)N[C@@H](CC(C)C)C(=O)N[C@@H](CCCCN)C(=O)N[C@@H](CCC(N)=O)C(=O)NCC(=O)NCC(=O)N1CCC[C@H]1C(=O)N[C@@H](CO)C(=O)N[C@@H](CCCCN)C(=O)N[C@@H](CCC(=O)O)C(=O)N[C@H](C(=O)N[C@H](C(=O)N[C@@H](CO)C(N)=O)[C@@H](C)CC)[C@@H](C)CC` [15D], in the test on NIH/Swiss female mice (setting [2]), the “In Vivo Glucose-Lowering Assay” value was “inactive”.
